Measured values published in patent US8569268B2, “Acrylate/methacrylate-based diblock copolymer/anthranilic diamide compositions for propagule coating” (E I du Pont de Nemours and Company, priority 2010, dated 2013).

System: Spodoptera frugiperda
Experiment: Laboratory test with 2nd instar larva of Spodoptera frugiperda on maize leaves
Type: in vivo

In the case of CNC(=O)c1cc(Cl)cc(C)c1NC(=O)c1cc(Br)nn1-c1ncccc1Cl [Compound 2, 3-bromo-N-[4-chloro-2-methyl-6-[(methylamino)carbonyl]phenyl]-1-(3-chloro-2-pyridinyl)-1H-pyrazole-5-carboxamide], the “concentration needed to achieve 100% mortality within 72 h” value is reported as 0.037 micrograms per g of tissue and the “concentration resulting in 50% mortality within 72 h” value is reported as 0.033 micrograms per g of leaf tissu.
